According to patent US20240376121A1, “COMPOUNDS AND USES THEREOF” (Foghorn Therapeutics Inc., priority 2021, published 2024):

Assays:
[1] = target: T1, HiBit-BRM fusion protein (Homo sapiens, UniProt P51531); assay: HiBiT-BRM cell-based degradation assay (Nano-Glo HiBiT Lytic Detection); settings: stable HeLa cell line expressing HiBiT-BRM, 24 h incubation; for BRM HiBit Degradation Maximum (%): top dose 30 μM; for DC50: read-out: BRM HiBit Degradation IC50
T1 construct: expressed in transfected cells
T1 sequence (P51531 whole entry, the tested form may be a part): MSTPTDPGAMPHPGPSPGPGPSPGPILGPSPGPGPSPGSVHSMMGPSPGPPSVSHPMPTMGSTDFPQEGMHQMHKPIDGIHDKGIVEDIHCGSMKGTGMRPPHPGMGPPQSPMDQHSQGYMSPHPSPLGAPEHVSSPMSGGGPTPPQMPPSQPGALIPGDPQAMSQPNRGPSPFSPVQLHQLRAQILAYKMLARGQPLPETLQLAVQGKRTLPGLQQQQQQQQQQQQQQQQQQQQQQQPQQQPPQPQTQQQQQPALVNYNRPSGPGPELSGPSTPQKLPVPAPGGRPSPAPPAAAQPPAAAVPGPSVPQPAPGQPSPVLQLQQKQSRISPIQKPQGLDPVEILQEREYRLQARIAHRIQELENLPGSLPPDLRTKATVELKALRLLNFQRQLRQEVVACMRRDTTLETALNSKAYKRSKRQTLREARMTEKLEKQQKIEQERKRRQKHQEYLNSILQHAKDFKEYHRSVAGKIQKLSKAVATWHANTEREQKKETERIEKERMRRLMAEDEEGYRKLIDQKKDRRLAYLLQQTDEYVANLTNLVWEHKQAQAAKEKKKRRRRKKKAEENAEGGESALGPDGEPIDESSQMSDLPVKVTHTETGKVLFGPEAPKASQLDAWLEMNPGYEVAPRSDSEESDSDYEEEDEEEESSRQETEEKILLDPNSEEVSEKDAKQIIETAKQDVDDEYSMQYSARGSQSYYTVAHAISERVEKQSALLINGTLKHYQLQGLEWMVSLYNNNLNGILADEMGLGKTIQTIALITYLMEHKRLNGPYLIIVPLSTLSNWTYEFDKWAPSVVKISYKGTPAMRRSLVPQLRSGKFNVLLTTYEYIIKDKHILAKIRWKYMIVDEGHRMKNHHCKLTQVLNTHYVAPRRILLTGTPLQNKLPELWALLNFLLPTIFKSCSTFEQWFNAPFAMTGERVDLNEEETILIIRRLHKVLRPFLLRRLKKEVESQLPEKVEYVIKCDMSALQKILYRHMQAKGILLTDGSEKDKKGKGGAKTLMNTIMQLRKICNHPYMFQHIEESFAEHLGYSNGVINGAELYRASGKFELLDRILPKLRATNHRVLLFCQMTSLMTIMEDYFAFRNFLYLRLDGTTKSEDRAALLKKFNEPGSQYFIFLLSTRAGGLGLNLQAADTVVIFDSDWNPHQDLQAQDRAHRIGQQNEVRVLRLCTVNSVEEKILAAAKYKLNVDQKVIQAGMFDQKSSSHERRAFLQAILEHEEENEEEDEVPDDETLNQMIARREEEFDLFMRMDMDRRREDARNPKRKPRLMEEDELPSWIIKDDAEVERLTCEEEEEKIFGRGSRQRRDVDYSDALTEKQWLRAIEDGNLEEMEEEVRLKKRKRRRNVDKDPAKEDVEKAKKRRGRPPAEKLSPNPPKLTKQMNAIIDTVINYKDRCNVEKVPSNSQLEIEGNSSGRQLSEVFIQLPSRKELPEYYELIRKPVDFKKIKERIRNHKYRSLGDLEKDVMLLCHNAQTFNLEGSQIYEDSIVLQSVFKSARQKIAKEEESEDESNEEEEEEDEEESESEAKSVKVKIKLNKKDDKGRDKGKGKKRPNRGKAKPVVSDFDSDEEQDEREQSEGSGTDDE
Outline: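 Percent BRM loss was derived from HiBiT luminescence relative to DMSO-treated cells and cells given 2 μM of a known BRM/BRG1 degrader. Treatment lasted 24 h in HiBiT-BRM HeLa cells, with a top final concentration of 30 μM.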

[2] = target: T2, HiBit-BRG1 fusion protein (Homo sapiens, UniProt P51532); assay: HiBiT-BRG1 cell-based degradation assay (Nano-Glo HiBiT Lytic Detection); settings: stable HeLa cell line expressing HiBit-BRG1 and LgBit, 24 h incubation; for Dmax: top dose 30 μM, read-out: BRG1 HiBit Degradation Maximum (%); for DC50: read-out: BRMG1 HiBit Degradation IC50
T2 construct: expressed in transfected cells
T2 sequence (P51532 whole entry, the tested form may be a part): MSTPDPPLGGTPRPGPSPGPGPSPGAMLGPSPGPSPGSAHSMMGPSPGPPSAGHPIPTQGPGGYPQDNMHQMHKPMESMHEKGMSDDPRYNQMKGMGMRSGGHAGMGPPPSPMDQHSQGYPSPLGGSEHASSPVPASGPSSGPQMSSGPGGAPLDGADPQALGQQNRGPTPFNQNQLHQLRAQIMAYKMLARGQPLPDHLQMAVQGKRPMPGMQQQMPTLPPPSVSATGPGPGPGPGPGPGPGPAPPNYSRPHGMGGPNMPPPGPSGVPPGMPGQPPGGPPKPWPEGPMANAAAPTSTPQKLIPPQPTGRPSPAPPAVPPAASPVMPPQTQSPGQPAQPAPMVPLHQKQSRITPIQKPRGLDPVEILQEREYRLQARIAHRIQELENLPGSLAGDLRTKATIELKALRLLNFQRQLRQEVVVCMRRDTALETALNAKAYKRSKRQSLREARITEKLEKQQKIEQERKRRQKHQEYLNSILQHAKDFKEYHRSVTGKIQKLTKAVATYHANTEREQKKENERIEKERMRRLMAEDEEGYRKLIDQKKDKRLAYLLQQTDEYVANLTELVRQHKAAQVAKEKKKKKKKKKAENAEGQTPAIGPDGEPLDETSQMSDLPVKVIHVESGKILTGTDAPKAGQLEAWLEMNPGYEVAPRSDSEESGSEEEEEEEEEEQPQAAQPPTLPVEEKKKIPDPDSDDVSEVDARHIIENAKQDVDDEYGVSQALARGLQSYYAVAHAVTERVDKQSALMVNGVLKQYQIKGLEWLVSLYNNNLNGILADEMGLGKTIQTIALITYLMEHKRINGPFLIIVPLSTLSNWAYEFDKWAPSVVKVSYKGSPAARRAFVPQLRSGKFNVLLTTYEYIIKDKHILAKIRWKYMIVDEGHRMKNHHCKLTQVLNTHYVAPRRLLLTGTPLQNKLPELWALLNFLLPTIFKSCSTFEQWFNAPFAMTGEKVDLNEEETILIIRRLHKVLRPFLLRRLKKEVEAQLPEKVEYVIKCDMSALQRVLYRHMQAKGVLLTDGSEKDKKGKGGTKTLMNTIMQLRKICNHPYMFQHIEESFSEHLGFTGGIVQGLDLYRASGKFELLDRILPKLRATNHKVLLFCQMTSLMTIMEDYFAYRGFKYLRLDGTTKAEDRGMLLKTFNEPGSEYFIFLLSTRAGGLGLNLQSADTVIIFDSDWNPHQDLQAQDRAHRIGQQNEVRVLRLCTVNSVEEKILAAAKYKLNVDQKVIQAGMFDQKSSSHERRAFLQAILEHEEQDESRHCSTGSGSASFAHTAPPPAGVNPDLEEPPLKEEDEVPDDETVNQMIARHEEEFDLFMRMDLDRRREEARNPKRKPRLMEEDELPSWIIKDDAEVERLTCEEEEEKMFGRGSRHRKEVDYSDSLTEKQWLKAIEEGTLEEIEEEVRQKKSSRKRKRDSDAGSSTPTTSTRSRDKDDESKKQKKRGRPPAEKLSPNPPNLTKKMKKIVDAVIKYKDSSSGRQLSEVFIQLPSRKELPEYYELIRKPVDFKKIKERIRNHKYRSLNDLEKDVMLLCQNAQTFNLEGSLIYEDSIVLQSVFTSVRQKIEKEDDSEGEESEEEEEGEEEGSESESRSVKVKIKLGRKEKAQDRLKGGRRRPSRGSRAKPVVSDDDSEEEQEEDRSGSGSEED
Outline: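 Degradation was scored from HiBiT lytic luminescence, scaled between DMSO-treated wells and wells given 2 μM of a standard BRM/BRG1 degrader. Cells were a stable HeLa HiBiT-BRG1/LgBiT line dosed for 24 h, ten concentrations in 3-fold steps from 30 μM, in duplicate.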

| SMILES | DC50 [1] [µM] | Dmax [2] [%] | DC50 [2] [µM] | BRM HiBit Degradation Maximum (%) [1] |
| --- | --- | --- | --- | --- |
| Cc1ncsc1-c1ccc([C@H](C)NC(=O)[C@@H]2C[C@@H](O)CN2C(=O)[C@@H](c2cc(N(C)CCN3CC(c4cc5nnc(-c6ccccc6O)cc5s4)C3)no2)C(C)C)cc1 [Compound 112, (2S,4R)-4-hydroxy-1-((R)-2-(3-((2-(3-(3-(2-hydroxyphenyl)thieno[3,2-c]pyridazin-6-yl)azetidin-1-yl)ethyl)(methyl)amino)isoxazol-5-yl)-3-methylbutanoyl)-N-((S)-1-(4-(4-methylthiazol-5-yl)phenyl)ethyl)pyrrolidine-2-carboxamide] | ≥ 0.1 | < 50 | ≥ 1 | B (“B” indicates maximum degradation ≥ 50%) |
| Cc1ncsc1-c1ccc([C@H](C)NC(=O)[C@@H]2C[C@@H](O)CN2C(=O)[C@@H](c2cc(N3CCC(C(=O)N4CC(c5cc6cc(-c7ccccc7O)nnc6s5)C4)CC3)no2)C(C)C)cc1 [Compound 5, (2S,4R)-4-hydroxy-1-((R)-2-(3-(4-(3-(3-(2-hydroxyphenyl)thieno[2,3-c]pyridazin-6-yl)azetidine-1-carbonyl)piperidin-1-yl)isoxazol-5-yl)-3-methylbutanoyl)-N—((S)-1-(4-(4-methylthiazol-5-yl)phenyl)ethyl)pyrrolidine-2-carboxamide] | ≥ 0.01 | < 50 | ≥ 1 | A (“A” indicates maximum degradation ≥ 75%) |
| Cc1ncsc1-c1ccc([C@H](C)NC(=O)[C@@H]2C[C@@H](O)CN2C(=O)[C@@H](c2cc(OCCN3CC(c4sc5nnc(-c6ccccc6O)cc5c4C)C3)no2)C(C)C)cc1 [Compound 22] | ≥ 0.01 | ≥ 50 | ≥ 0.01 | A (“A” indicates maximum degradation ≥ 75%) |
| Cc1ncsc1-c1ccc([C@H](C)NC(=O)[C@@H]2C[C@@H](O)CN2C(=O)[C@@H](c2cc(OCCN3C[C@@H]4[C@H](C3)[C@H]4c3c(C)sc4nnc(-c5ccccc5O)cc34)no2)C(C)C)cc1 [Compound 21] | ≥ 1 | < 50 | ≥ 1 | C (“C” indicates maximum degradation < 50%) |
| Cc1ncsc1-c1ccc([C@H](C)NC(=O)[C@@H]2C[C@@H](O)CN2C(=O)[C@@H](c2cc(OCCN3C[C@H]4C[C@@H](C3)[C@@H]4c3sc4nnc(-c5ccccc5O)cc4c3C)no2)C(C)C)cc1 [Compound 63, (2S,4R)-4-hydroxy-1-((R)-2-(3-(2-((1R,5S,6R)-6-(3-(2-hydroxyphenyl)-5-methylthieno[2,3-c]pyridazin-6-yl)-3-azabicyclo[3.1.1]heptan-3-yl)ethoxy)isoxazol-5-yl)-3-methylbutanoyl)-N-((S)-1-(4-(4-methylthiazol-5-yl)phenyl)ethyl)pyrrolidine-2-carboxamide] | ≥ 0.01 | < 50 | ≥ 1 | A (“A” indicates maximum degradation ≥ 75%) |
| Cc1ncsc1-c1ccc([C@H](C)NC(=O)[C@@H]2C[C@@H](O)CN2C(=O)[C@@H](NC(=O)[C@H]2CC[C@@H](c3sc4nnc(-c5ccccc5O)cc4c3C)CC2)C(C)(C)C)cc1 [Compound 50, (2S,4R)-4-hydroxy-1-((S)-2-((1s,4R)-4-(3-(2-hydroxyphenyl)-5-methylthieno[2,3-c]pyridazin-6-yl)cyclohexane-1-carboxamido)-3,3-dimethylbutanoyl)-N-((S)-1-(4-(4-methylthiazol-5-yl)phenyl)ethyl)pyrrolidine-2-carboxamide] | ≥ 1 | < 50 | ≥ 1 | C (“C” indicates maximum degradation < 50%) |
| Cc1ncsc1-c1ccc([C@H](C)NC(=O)[C@@H]2C[C@@H](O)CN2C(=O)[C@@H](c2cc(O[C@H]3C[C@H](N4CCC(c5sc6nnc(-c7ccccc7O)cc6c5C)CC4)C3)no2)C(C)C)cc1 [Compound 59, (2S,4R)-4-hydroxy-1-((R)-2-(3-((1r,3R)-3-(4-(3-(2-hydroxyphenyl)-5-methylthieno[2,3-c]pyridazin-6-yl)piperidin-1-yl)cyclobutoxy)isoxazol-5-yl)-3-methylbutanoyl)-N-((S)-1-(4-(4-methylthiazol-5-yl)phenyl)ethyl)pyrrolidine-2-carboxamide] | ≥ 1 | < 50 | ≥ 1 | A (“A” indicates maximum degradation ≥ 75%) |

Now from value to compound, other results behind:

| DC50 [1] [µM] | Dmax [2] [%] | DC50 [2] [µM] | SMILES | BRM HiBit Degradation Maximum (%) [1] |
| --- | --- | --- | --- | --- |
| ≥ 1 | < 50 | ≥ 1 | Cc1ncsc1-c1ccc(CNC(=O)[C@@H]2C[C@@H](O)CN2C(=O)[C@@H](NC(=O)[C@H]2CC[C@@H](c3cnc(N4CCC(c5sc6nnc(-c7ccccc7O)cc6c5C)CC4)nc3)CC2)C(C)(C)C)cc1 [Compound 86, (2S,4R)-4-hydroxy-1-((S)-2-((1s,4R)-4-(2-(4-(3-(2-hydroxyphenyl)-5-methylthieno[2,3-c]pyridazin-6-yl)piperidin-1-yl)pyrimidin-5-yl)cyclohexane-1-carboxamido)-3,3-dimethylbutanoyl)-N-(4-(4-methylthiazol-5-yl)benzyl)pyrrolidine-2-carboxamide] | C (“C” indicates maximum degradation < 50%) |
| ≥ 1 | < 50 | ≥ 1 | Cc1ncsc1-c1ccc(CNC(=O)[C@@H]2C[C@@H](O)CN2C(=O)[C@@H](NC(=O)CCCC(=O)N2CCC(c3cc4cc(-c5ccccc5O)nnc4s3)CC2)C(C)(C)C)cc1 [Compound 28] | B (“B” indicates maximum degradation ≥ 50%) |
| ≥ 1 | < 50 | ≥ 1 | Cc1ncsc1-c1ccc([C@H](C)NC(=O)[C@@H]2C[C@@H](O)CN2C(=O)[C@@H](c2cc(OCCN3CCC(c4c(C)sc5nnc(-c6ccccc6O)cc45)CC3)no2)C(C)C)cc1 [Compound 89, (2S,4R)-4-hydroxy-1-((R)-2-(3-(2-(4-(3-(2-hydroxyphenyl)-6-methylthieno[2,3-c]pyridazin-5-yl)piperidin-1-yl)ethoxy)isoxazol-5-yl)-3-methylbutanoyl)-N-((S)-1-(4-(4-methylthiazol-5-yl)phenyl)ethyl)pyrrolidine-2-carboxamide] | C (“C” indicates maximum degradation < 50%) |
| ≥ 1 | ≥ 50 | ≥ 1 | Cc1ncsc1-c1ccc([C@H](C)NC(=O)[C@@H]2C[C@@H](O)CN2C(=O)[C@@H](c2cc(N3CCC(CN4CCc5sc6nnc(-c7ccccc7O)cc6c5C4)CC3)no2)C(C)C)cc1 [Compound 92, (2S,4R)-4-hydroxy-1-((R)-2-(3-(4-((3-(2-hydroxyphenyl)-7,8-dihydropyrido[3′,4′:4,5]thieno[2,3-c]pyridazin-6(5H)-yl)methyl)piperidin-1-yl)isoxazol-5-yl)-3-methylbutanoyl)-N-((S)-1-(4-(4-methylthiazol-5-yl)phenyl)ethyl)pyrrolidine-2-carboxamide] | C (“C” indicates maximum degradation < 50%) |
| ≥ 1 | < 50 | ≥ 1 | Cc1ncsc1-c1ccc([C@H](C)NC(=O)[C@@H]2C[C@@H](O)CN2C(=O)[C@@H](c2cc(C3CCN(C(=O)[C@@H]4CCc5sc6nnc(-c7ccccc7O)cc6c5C4)CC3)no2)C(C)C)cc1 [Compound 48, (2S,4R)-4-hydroxy-1-((R)-2-(3-(1-((R)-3-(2-hydroxyphenyl)-5,6,7,8-tetrahydrobenzo[4,5]thieno[2,3-c]pyridazine-6-carbonyl)piperidin-4-yl)isoxazol-5-yl)-3-methylbutanoyl)-N-((S)-1-(4-(4-methylthiazol-5-yl)phenyl)ethyl)pyrrolidine-2-carboxamide] | C (“C” indicates maximum degradation < 50%) |
| ≥ 1 | < 50 | ≥ 1 | Cc1ncsc1-c1ccc(CNC(=O)[C@@H]2C[C@@H](O)CN2C(=O)[C@H](c2cc(N3CCOCC3)no2)C(C)C)c(OCCCN2CCC(c3sc4nnc(-c5ccccc5O)cc4c3C)CC2)c1 (single isomer, unassigned) [Compound 55] | A (“A” indicates maximum degradation ≥ 75%) |
| ≥ 0.1 | < 50 | ≥ 1 | Cc1ncsc1-c1ccc(CNC(=O)[C@@H]2C[C@@H](O)CN2C(=O)[C@@H](NC(=O)CCCC(=O)N2CC(c3cc4cc(-c5ccccc5O)nnc4s3)C2)C(C)(C)C)cc1 [Compound 31] | C (“C” indicates maximum degradation < 50%) |
| < 0.01 | < 50 | ≥ 1 | Cc1ncsc1-c1ccc([C@H](C)NC(=O)[C@@H]2C[C@@H](O)CN2C(=O)[C@@H](c2cc([C@H]3CC[C@@H](N4CCC(c5sc6nnc(-c7ccccc7O)cc6c5C)CC4)CC3)no2)C(C)C)cc1 [Compound 37, (2S,4R)-4-hydroxy-1-((R)-2-(3-((1s,4S)-4-(4-(3-(2-hydroxyphenyl)-5-methylthieno[2,3-c]pyridazin-6-yl)piperidin-1-yl)cyclohexyl)isoxazol-5-yl)-3-methylbutanoyl)-N-((S)-1-(4-(4-methylthiazol-5-yl)phenyl)ethyl)pyrrolidine-2-carboxamide] | A (“A” indicates maximum degradation ≥ 75%) |
